Data on 2 molecules can be found in article PMC5856786, “A DHODH inhibitor increases p53 synthesis and enhances tumor cell killing by p53 degradation blockage” (Nature Communications, 2018).

The test system of one data set is p53-null H1299 cells. Put plainly: p53 reporter (CPRG assay) in p53-null H1299 cells transfected with RGCΔFosLacZ. Type of data set: cell-based. The settings on record: H1299, 16 h exposure. As to the method:
Supplementary Figure 1. HZ compounds increase the levels of p53-induced mRNAs. a) p53-null H1299 cells were transfected with the RGCΔ FosLacZ reporter construct and levels of p53-dependent transcription were determined by CPRG assay following a 16 h exposure to HZ00. A vector expressing wild-type p53 was used as a positive control. The average of three […]
for 1 hour prior to treatment with 2 µM nutlin-3 for an additional 18 hours. Levels of p53-induced mRNAs and p53 mRNA were determined by q-RT-PCR. tbp was used as a control.
Values correspond to the average of three technical repeats with standard deviation used for error. RNA extraction and q-RT-PCR were performed as previously described - see supplementary information7. c) HCT116 p53 wild-type or p53 deficient cells were treated […]
supplementary information for cell line description8. d) ARN8 cells treated for 6 hours with HZ00 at indicated doses. Levels of p53 mRNA were determined by q-RT-PCR. […]

A further data set has as its system p53 in ARN8 cells. Nature of the data set: p53 synthesis assay (35S-Met-Cys pulse labeling, p53 immunoprecipitation). It counts as cell-based, human. The settings on record: 20 μM, within 6 h of treatment. As to the method:
ARN8 cells were seeded at 2.5 × 10^6 cells per 10 cm dish. […] After 5.5 h, medium was substituted for Met- and Cys-deprived DMEM, supplemented with 5 μM nutlin-3, 0.5% FBS and 4 mM L-glutamine for 20 min in the presence of the corresponding compounds. ^35S-Met-Cys (50 μCi mL^−1) was added for 30 min. […] Samples were centrifuged at 16,000×g for 15 min at 4 °C. Volume of 30 µL of each supernatant was stored as input. The remaining supernatants were incubated with 5 µg anti-p53 DO-1 antibody and rotated overnight at 4 °C. Samples were transferred to Dynabeads Protein G (# D10004D, Life Technologies) and rotated for 30 min at RT. Samples were centrifuged briefly for 10 s and placed in front of a magnet. […] Pellets were resuspended in 3× LDS containing 100 mM DTT. Samples were separated by SDS-PAGE and the gels were incubated in enhancer solution (#6NE9741, PerkinElmer), dried and exposed to Carestream Kodak BioMax MR films at −80 °C.

For data set [1], the system named is cyclin-dependent kinases (CDKs). Put plainly: 33PanQinase radiometric kinase assay, panel of 16 CDKs (Supplementary Table 1). Type of data set: biochemical. An excerpt: Supplementary Table 1. In vitro inhibition (% remaining activity) of cyclin-dependent
ProQinase GmbH (Freiburg, Germany) using a radiometric protein kinase assay
(33PanQinase® Activity Assay).
(1 picture or pasted object on this page, not shown here)

The next data set relates to HNDF cells. Nature of the data set: PI flow cytometry, sub-G1 cells, HNDF. It counts as cell-based, human. The procedure: Cell cycle distribution analysis was performed on a Becton Dickinson FACScan flow cytometer or FACSCalibur (BD Biosciences) following staining with propidium iodide (PI) or dual labeling with BrdU and PI[36]. These assays were analyzed using CellQuest Pro (BD Biosciences).

Data set [2] is described as follows: In vivo pharmacokinetic parameters of (R)-HZ05. Set-up: species or system C57B1/6N mice. The note with it: female, C57B1/6N, mouse, plasma, sc, 50 mg kg-1; following subcutaneous administration (Supplementary Fig. 7b); read-out: half-life (converted). As to the method:
Waters Acquity UPLC (Waters Corp.) was used for all LC/MS and LC/MS/MS experiments. For chromatographic separation a general gradient was used (5 % mobile phase B to 90 % over 2 min total run) on a C18 BEH 1.7 µm column 2 × 50 mm (Waters Corp.). Mobile phase A consisted of 5 % acetonitrile 0.1 % formic acid and mobile phase B 100 % acetonitrile 0.1 % formic acid. The flow rate was 0.5 mL min-1 and 3 µL of the sample was injected. A standard curve between 3−1000 nM was prepared for each compound. […]
In vivo Pharmacokinetic Parameter Determination
(R)-HZ05 was formulated for subcutaneous and oral administration at 5 mg mL-1 in 20 % hydroxypropyl-β-cyclodextrin in PBS and formulated at 5 mg mL-1 diluted in physiological NaCl. […]
Blood was collected […]
in EDTA tubes from three mice per time point and stored on ice with plasma separated within 30 min by centrifugation at 2000 g and stored at –80 ° C until analysis at 0.08, 0.25, 0.5, 1, 2, 3, 4, 6 and 24 h post administration. […] internal standard (9 nM warfarin) was added to each plasma sample and each sample was shaken at RT for 10 min followed by centrifugation at 2000 g for 30 min at 4 °C. […] of sample was injected into an Acquity UPLC coupled to a triple quadrupole mass spectrometer (Waters) operated in MRM mode with positive electrospray ionization. MRM transition 381.09 > […]
CV and 40 V for CE) as a qualifier ion. Transition for internal standard was 309.16 > 163.005 (22 V for CV and 14 V for CE). Ion source conditions were: capillary voltage, 2000 V; desolvation temperature, 500 °C; desol vation gas flow rate, 1000 L h-1. Separation was conducted using a BEH C18 column (2.1 × 50 mm, 1.7 µm, Waters) using a linear gradient: 0 – 0.5 min, 5 % B; […], 100 % B, 1.61–2.00 min, 5 % B. Mobile phase A was 5 % acetonitrile with 0.1 % formic acid and B […]
All animal experimentation was carried out by Sweden
Contract In vivo Design AB in compliance with 2010/63/EU directive and approved by Stockholms Norra Djurförsöksetiska Nämnd (laboratory animal eth ical committee Stockholm) with the approval number N61/15. Any single plasma concentration value deviated by >10 times from the other two values was excluded from the pharmacokinetic evaluation, but was included in the figure. […]

Consider `O=C(NC1CCCc2c1cnn2-c1ccccc1F)c1ccccn1` (centres unmarked) [HZ00], for which, in the data set with p53-null H1299 cells, the “p53-reporter activity in p53-null cells” value is reported as “did not result in p53-reporter activity”. Besides, the p53 synthesis entry in the data set on p53 in ARN8 cells is given as “increase p53 synthesis”. For the same molecule, the “inhibition of cyclin-dependent kinases” value in data set [1] is listed as “did not detect inhibition”.

As for `O=C(NC1CCCc2c1cnn2-c1ccccc1F)c1onc2c1CCCC2` (centres unmarked) [HZ05], the sub-G1 cells is 1.9% with HNDF cells (HZ05 1 μM 72 h + 48 h, 2 μM nutlin-3a last 48 h); 2.2% in the data set on HNDF cells (HZ05 1 μM 72 h + 48 h, DMSO last 48 h); 1.9% with HNDF cells (HZ05 1 μM, 72 h treatment); 2.9% in the data set with HNDF cells (HZ05 2.5 μM, 72 h treatment). Further, the half-life in data set [2] was 2.5 h.
